{
  "source": "patent US6451990B1",
  "about": "“Azithromycin preparation in its noncryst alline and crystalline dihydrate forms” (Astur-Pharma, S.A., priority 1999, dated 2002)",
  "key": {"[1]": {"system": "gram-positive and some cases of gram-negative bacteria", "details": "against gram-positive and some cases of gram-negative bacteria; Kirst, Sides 1989; cited from earlier work"}, "[2]": {"details": "cited from earlier work; for hygroscopicity of crystalline form: as described in EP 0,298,650"}, "[3]": {"assay": "Hygroscopicity: water uptake under an atmosphere over 75% relative humidity", "assay_type": "physicochemical", "details": "for water content: sample containing 3% water at start, atmosphere over 75% relative humidity", "protocol": "4. Hygroscopicity. Two different samples of non-crystalline azithromycin containing 3% water were kept under an atmosphere over 75% relative humidity. After 8 hours, water content in the first sample was 5.3%, while the second one contained 9.9% water after 72 hours."}},
  "note": "Where two headings read alike, the source gives them in different places.",
  "data": [
    {"smiles": "CC[C@H]1OC(=O)[C@H](C)[C@@H](O[C@H]2C[C@@](C)(OC)[C@@H](O)[C@H](C)O2)[C@H](C)[C@@H](O[C@@H]2O[C@H](C)C[C@H](N(C)C)[C@H]2O)[C@](C)(O)C[C@@H](C)CN(C)[C@H](C)[C@@H](O)[C@]1(C)O", "note": "[Azithromycin, 9-deoxo-9a-aza-9a-methyl-9a-homoerythromycin A]", "values": [
      {"measurement": "antimicrobial activity", "setting": "[1]", "value": "excellent antimicrobial activity"}
    ]},
    {"smiles": "CC[C@H]1OC(=O)[C@H](C)[C@@H](O[C@H]2C[C@@](C)(OC)[C@@H](O)[C@H](C)O2)[C@H](C)[C@@H](O[C@@H]2O[C@H](C)C[C@H](N(C)C)[C@H]2O)[C@](C)(O)C[C@@H](C)CN(C)[C@H](C)[C@@H](O)[C@]1(C)O", "note": "[azithromycin dihydrate, 9-deoxo-9a-aza-9a-methyl-9a-homoerythromycin A dihydrate]", "values": [
      {"measurement": "hygroscopicity of crystalline form", "setting": "[2]; dihydrate", "value": "non-hygroscopic"},
      {"measurement": "percentile water content (kept constant)", "setting": "[2]; theoretical value 4.6%", "value": "4.5-5%"}
    ]},
    {"smiles": "CC[C@H]1OC(=O)[C@H](C)[C@@H](O[C@H]2C[C@@](C)(OC)[C@@H](O)[C@H](C)O2)[C@H](C)[C@@H](O[C@@H]2O[C@H](C)C[C@H](N(C)C)[C@H]2O)[C@](C)(O)C[C@@H](C)CN(C)[C@H](C)[C@@H](O)[C@]1(C)O", "note": "[azithromycin monohydrate]", "values": [
      {"measurement": "hygroscopicity of crystalline form", "setting": "[2]", "value": "hygroscopic"}
    ]},
    {"smiles": "CC[C@H]1OC(=O)[C@H](C)[C@@H](O[C@H]2C[C@@](C)(OC)[C@@H](O)[C@H](C)O2)[C@H](C)[C@@H](O[C@@H]2O[C@H](C)C[C@H](N(C)C)[C@H]2O)[C@](C)(O)C[C@@H](C)CN(C)[C@H](C)[C@@H](O)[C@]1(C)O", "note": "[non-crystalline azithromycin, non-crystalline 9-deoxo-9a-aza-9a-methyl-9a-homoerythromycin A]", "values": [
      {"measurement": "Hygroscopicity", "setting": "[3]; conclusion from water uptake over 75% relative humidity", "value": "moderately hygroscopic"},
      {"measurement": "water content", "setting": "[3]; after 8 hours (first sample)", "value": 5.3, "unit": "%"},
      {"measurement": "water content", "setting": "[3]; after 72 hours (second sample)", "value": 9.9, "unit": "%"}
    ]}
  ]
}
